Measured values as given in patent US8653089B2, “Heterocyclic compounds and methods of use” (F. Hoffmann-La Roche AG, priority 2011, dated 2014).

What was measured:
p110 alpha = target: T1, p110 alpha (Homo sapiens, UniProt P42336); assay: PI3K isoform inhibition assay, p110 alpha (delta/alpha selectivity); format: biochemical; conditions: delta/alpha selectivity ratio
T1 construct: purchased Upstate Group, Millipore; Dundee, UK
Procedure: (§1) PI3K enzymatic activity was assayed by measuring the amount of product phosphatidylinositol 3,4,5-phosphate (PIP3) formed from substrate 4,5 phosphatidylinositol 4,5-phosphate (PIP2) using a fluorescence polarization displacement assay. The decrease in fluorescence polarization of a fluorescent PIP3 probe is measured as it is displaced from a PIP3-binding protein GRP-1detector by PI3K-catalyzed product. Assays were conducted in 384-well black Proxiplates in the presence of 10 mM Tris (pH 7.5), 50 mM NaCl, 4 mM MgCl2, 5% glycerol, 25 μM ATP, 10 μM PIP2 (Echelon Biosciences), 0.05% 3-[(3-cholamidopropyl)dimethylammonio]-1-propanesulfonate, 1 mM dithiothreitol, and 2% DMSO. The kinase reactions were initiated by the addition of 40 ng/mL p110α/p85α, 300 ng/mL p110β/p85α, 40 ng/mL p110γ, or 40 ng/mL p110δ/p85α (Upstate Group, Millipore; Dundee, UK), and 10 μM PIP2 (Echelon Biosciences) to the wells. The reactions were stopped at timepoints that yielded a fixed change in fluorescence polarization consistent with initial rate conditions (typically 30 minutes), by the addition of 12.5 mM EDTA, 100 nM GRP-1 detector, and 5 nM tetramethylrhodamine-labeled PIP3 (TAMRA-PIP3; Echelon Biosciences). After 60 minutes of incubation at room temperature to allow equilibration of labeled and unlabeled PIP3 binding, the parallel and perpendicular components of the fluorescence emissions from each sample were measured at an excitation wavelength of 530 nm and an emission wavelength of 590 nm using an Envision fluorescent plate reader with a rhodamine filter (PerkinElmer Life and Analytical Sciences; Wellesley, Mass.). The assay is capable of detecting 0.1-2.0 μM PIP3 product. The IC50 values were obtained by fitting the dose-dependent inhibition data to a 4-parameter equation using Assay Explorer software (MDL, San Ramon, Calif.).
Alternatively, inhibition of PI3K was determined in a radiometric assay using purified, recombinant enzyme and ATP at a concentration of 1 uM. The Formula I compound was serially diluted in 100% DMSO. The kinase reaction was incubated for 1 h at room temperature, and the reaction was terminated by the addition of PBS. IC50 values were subsequently determined using sigmoidal dose-response curve fit (variable slope).
The same protocol may be used to establish IC50 values for p110α (alpha) PI3K binding.
(§2) Recombinant PI3K p110 isoforms alpha, beta, and delta may be prepared and purified according to US 2008/0275067 from recombinant PI3K heterodimeric complexes consisting of a p110 catalytic subunit and a p85 regulatory subunit overexpressed using the BAC-TO-BAC® HT baculovirus expression system (GIBCO/BRL), and then purified for use in biochemical assays. The four Class I PI 3-kinases are cloned into baculovirus vectors as follows:
p110 alpha: Similar to the method used for p110 delta, described above, a FLAG™-tagged version of p110 alpha (Volinia et al (1994) Genomics, 24(3):427-77) was subcloned in BamH1-HindIII sites of pFastbac HTb (Life Technologies) such that the clone was in frame with the His tag of the vector.

p110 delta = target: T2, p110 delta (Homo sapiens, UniProt O00329); assay: PI3K isoform inhibition assay (fluorescence polarization), p110 delta; format: biochemical; conditions: p110 delta binding IC50, selected compounds from Table 1
T2 construct: purchased Upstate Group, Millipore; Dundee, UK
Procedure: as §1, with “Calif.). […]” for “Calif.).”
as §2
p110 delta: A FLAG™-tagged (Eastman Kodak Co., U.S. Pat. No. 4,703,004; U.S. Pat. No. 4,782,137; U.S. Pat. No. 4,851,341) version of human p110.delta (Chantry et al., J. Biol. Chem. (1997) 272:19236-41) is subcloned using standard recombinant DNA techniques into the BamHI-XbaI site of the insect cell expression vector pFastbac HTb (Life Technologies, Gaithersburg, Md.), such that the clone is in frame with the His tag of the vector.

T1 sequence (P42336 whole entry, canonical isoform): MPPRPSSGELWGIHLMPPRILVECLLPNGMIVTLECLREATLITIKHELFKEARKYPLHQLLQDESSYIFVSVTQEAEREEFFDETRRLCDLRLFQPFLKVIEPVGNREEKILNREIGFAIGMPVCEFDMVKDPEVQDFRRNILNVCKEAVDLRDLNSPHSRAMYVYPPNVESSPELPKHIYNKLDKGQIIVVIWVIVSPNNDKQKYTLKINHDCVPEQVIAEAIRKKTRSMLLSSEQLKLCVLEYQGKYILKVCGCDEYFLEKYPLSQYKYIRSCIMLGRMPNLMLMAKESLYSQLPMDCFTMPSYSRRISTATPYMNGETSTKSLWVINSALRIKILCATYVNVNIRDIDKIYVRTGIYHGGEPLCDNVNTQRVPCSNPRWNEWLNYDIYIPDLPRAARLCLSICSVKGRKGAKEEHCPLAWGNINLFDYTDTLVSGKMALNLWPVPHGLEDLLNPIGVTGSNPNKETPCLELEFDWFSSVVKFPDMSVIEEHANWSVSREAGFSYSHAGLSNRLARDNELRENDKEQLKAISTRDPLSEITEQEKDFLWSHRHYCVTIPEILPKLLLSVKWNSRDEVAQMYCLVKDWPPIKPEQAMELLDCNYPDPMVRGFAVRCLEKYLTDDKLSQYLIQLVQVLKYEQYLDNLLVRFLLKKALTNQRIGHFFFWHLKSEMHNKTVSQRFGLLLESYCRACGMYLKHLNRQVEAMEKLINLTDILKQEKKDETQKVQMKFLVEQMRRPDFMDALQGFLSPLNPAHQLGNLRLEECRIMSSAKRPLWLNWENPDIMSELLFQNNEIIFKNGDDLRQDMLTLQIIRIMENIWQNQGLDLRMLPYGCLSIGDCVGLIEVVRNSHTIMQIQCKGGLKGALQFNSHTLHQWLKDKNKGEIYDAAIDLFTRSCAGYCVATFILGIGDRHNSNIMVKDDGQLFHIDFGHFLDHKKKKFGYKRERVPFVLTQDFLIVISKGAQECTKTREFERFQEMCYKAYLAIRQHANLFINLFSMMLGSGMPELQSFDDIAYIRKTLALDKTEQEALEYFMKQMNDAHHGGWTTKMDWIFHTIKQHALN
T1 sequence (P27986 whole entry partner, canonical isoform): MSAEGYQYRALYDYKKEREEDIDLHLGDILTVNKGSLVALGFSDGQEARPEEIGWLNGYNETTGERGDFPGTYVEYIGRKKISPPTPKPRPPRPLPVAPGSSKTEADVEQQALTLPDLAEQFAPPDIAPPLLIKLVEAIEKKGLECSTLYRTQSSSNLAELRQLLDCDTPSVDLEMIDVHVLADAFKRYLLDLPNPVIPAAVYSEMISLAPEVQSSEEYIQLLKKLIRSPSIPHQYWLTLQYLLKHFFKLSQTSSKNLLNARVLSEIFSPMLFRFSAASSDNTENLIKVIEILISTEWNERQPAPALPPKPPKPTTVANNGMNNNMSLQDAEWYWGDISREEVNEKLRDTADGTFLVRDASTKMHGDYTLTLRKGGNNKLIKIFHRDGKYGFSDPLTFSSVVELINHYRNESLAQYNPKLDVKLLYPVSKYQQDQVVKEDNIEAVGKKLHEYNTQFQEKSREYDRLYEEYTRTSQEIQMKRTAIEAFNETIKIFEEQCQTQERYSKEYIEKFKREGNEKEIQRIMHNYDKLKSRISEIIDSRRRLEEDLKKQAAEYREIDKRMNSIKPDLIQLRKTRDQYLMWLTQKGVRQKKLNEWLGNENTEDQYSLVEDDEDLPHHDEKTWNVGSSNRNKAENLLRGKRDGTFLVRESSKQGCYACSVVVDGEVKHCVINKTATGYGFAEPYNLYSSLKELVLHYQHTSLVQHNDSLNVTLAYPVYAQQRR
T2 sequence (O00329 whole entry, canonical isoform): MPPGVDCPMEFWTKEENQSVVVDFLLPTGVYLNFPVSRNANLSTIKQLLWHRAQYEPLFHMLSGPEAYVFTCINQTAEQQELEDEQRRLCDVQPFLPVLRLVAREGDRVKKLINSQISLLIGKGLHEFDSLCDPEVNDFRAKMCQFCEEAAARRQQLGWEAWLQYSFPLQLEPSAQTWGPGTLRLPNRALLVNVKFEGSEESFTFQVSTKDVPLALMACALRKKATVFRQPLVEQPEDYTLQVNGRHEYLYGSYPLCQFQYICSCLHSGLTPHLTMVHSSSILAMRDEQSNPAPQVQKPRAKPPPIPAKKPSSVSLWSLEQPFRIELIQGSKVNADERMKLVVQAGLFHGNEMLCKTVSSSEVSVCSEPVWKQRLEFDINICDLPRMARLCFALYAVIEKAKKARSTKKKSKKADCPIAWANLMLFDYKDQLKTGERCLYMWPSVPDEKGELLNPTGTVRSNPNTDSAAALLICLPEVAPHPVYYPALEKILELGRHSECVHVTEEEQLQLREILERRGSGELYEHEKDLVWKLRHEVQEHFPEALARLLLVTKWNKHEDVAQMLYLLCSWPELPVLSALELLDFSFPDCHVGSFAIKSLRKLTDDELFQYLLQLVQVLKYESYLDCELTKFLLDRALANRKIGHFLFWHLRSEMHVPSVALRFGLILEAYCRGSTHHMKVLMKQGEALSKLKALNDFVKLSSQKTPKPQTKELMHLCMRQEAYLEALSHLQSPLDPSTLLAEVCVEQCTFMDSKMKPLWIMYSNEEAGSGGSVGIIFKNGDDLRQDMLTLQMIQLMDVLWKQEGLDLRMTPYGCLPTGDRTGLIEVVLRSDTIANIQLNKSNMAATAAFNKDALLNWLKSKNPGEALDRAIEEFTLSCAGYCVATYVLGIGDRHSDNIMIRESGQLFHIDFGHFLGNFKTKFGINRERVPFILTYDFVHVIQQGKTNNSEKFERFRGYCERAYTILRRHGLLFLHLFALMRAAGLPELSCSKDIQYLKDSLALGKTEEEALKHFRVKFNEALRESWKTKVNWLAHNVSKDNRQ
T2 sequence (P27986 whole entry partner, canonical isoform): as the sequence (P27986 whole entry partner, canonical isoform) above

SMILES	IC50 p110 alpha/IC50 p110 delta (greater than or equal to, ≧) (p110 alpha)	IC50 (p110 delta)
CC(Nc1ncnc2[nH]cnc12)c1nc2ccccc2n1-c1ccccc1 (racemic) [Example 102, N-(1-(1-phenyl-1H-benzo[d]imidazol-2-yl)ethyl)-9H-purin-6-amine]	≥ 230	9.1 nM
CC(Nc1ncnc2[nH]cnc12)c1sc2ccccc2c1-c1ccccc1 (stereo not shown) [Example 101, N-(1-(3-phenylbenzo[b]thiophen-2-yl)ethyl)-9H-purin-6-amine]	≥ 40	52.3 nM
CC(Nc1ncnc2[nH]cnc12)c1oc2ccccc2c1-c1ccccc1 (stereo not shown) [Example 103, N-(1-(3-phenylbenzofuran-2-yl)ethyl)-9H-purin-6-amine]	≥ 64	33 nM
Nc1ncnc2c1ncn2Cc1nc2ccccc2n1-c1ccccc1 [Example 106, 9-((1-phenyl-1H-benzo[d]imidazol-2-yl)methyl)-9H-purin-6-amine]	≥ 11	189 nM
CC(=O)N1CCC(n2c([C@H](C)Nc3ncnc4[nH]cnc34)nc3ccccc32)CC1 [Example 115, (S)-1-(4-(2-(1-(9H-purin-6-ylamino)ethyl)-1H-benzo[d]imidazol-1-yl)piperidin-1-yl)ethanone]	≥ 153	13.7 nM
CC[C@H](Nc1ncnc2[nH]cnc12)c1nc2ccccc2n1-c1ccccc1 [Example 119, (S)—N-(1-(1-phenyl-1H-benzo[d]imidazol-2-yl)propyl)-9H-purin-6-amine]	≥ 1320	1.59 nM
C[C@H](Nc1ncnc2[nH]cnc12)c1nc2c(Cl)cccc2n1-c1ccccc1 [Example 120, (S)—N-(1-(4-chloro-1-phenyl-1H-benzo[d]imidazol-2-yl)ethyl)-9H-purin-6-amine]	≥ 470	4.46 nM
C[C@H](Nc1ncnc2[nH]cnc12)c1nc2ccccc2n1C1CCCOC1 (stereo partly drawn) [Example 128, N-((1S)-1-(1-(tetrahydro-2H-pyran-3-yl)-1H-benzo[d]imidazol-2-yl)ethyl)-9H-purin-6-amine]	≥ 58	36.2 nM
C[C@H](Nc1ncnc2[nH]cnc12)c1nc2ccccc2n1C1CCN(C2COC2)CC1 [Example 129, (S)—N-(1-(1-(1-(oxetan-3-yl)piperidin-4-yl)-1H-benzo[d]imidazol-2-yl)ethyl)-9H-purin-6-amine]	≥ 33	63.4 nM
Nc1ncnc2c1ccn2Cc1nc2ccccc2n1-c1ccccc1 [Example 139, 7-((1-phenyl-1H-benzo[d]imidazol-2-yl)methyl)-7H-pyrrolo[2,3-d]pyrimidin-4-amine]	–	302 nM
Cc1nn(Cc2nc3ccccc3n2-c2ccccc2)c2ncnc(N)c12 [Example 142, 3-methyl-1-((1-phenyl-1H-benzo[d]imidazol-2-yl)methyl)-1H-pyrazolo[3,4-d]pyrimidin-4-amine]	–	278 nM
C[C@H](Nc1ncnc2sccc12)c1nc2ccccc2n1-c1ccccc1 [Example 143, (S)—N-(1-(1-phenyl-1H-benzo[d]imidazol-2-yl)ethyl)thieno[2,3-d]pyrimidin-4-amine]	≥ 24	87.9 nM
